Key:
[1] = Extraction of acrylic acid and 3-hydroxypropionic acid from aqueous stock solutions using various extractants; details: 22° C.; for Partition Coefficient, D 3HP / Partition Coefficient, D AA: extractant phase/aqueous phase
Description: In this Example, there were utilized five (5) aqueous stock solutions. The aqueous stock solutions comprise 3-hydroxypropionic acid and acrylic acid. In each of the five aqueous stock solutions, the concentration of 3-hydroxypropionic acid is approximately two times higher than the concentration of the acrylic acid.
In carrying out the following extractions of 3-hydroxypropionic acid and acrylic acid from aqueous stock solutions comprising 3-hydroxypropionic acid and acrylic acid, the following organic extractants were used: • a. Decanol • b. Methyl isobutyl ketone (MiBK) • c. Isopropyl ether • d. Methyl acrylate • e. Methyl propionate • f. Methylene chloride (CH2Cl2) • g. Toluene • h. Isopropyl acetate • i. Ethyl acetate • j. 50/50 wt % Tributyl phosphate (TBP) and ISOPAR-K isoparaffinic hydrocarbon available from Exxon Mobil Corporation The extraction procedure utilized in the Examples herein for separating and recovering 3-hydroxypropionic acid and acrylic acid from aqueous solutions comprising 3-hydroxypropionic acid and acrylic acid is set forth below.
1. To a 15 ml centrifuge tube 5 ml of an acid stock solution and an extractant were added. Masses of the empty centrifuge tube, the aqueous solution and extractant were recorded.
2. The tube was placed on a platform shaker and the contents in the tube were mixed at 230 rpm for 30 minutes at 22° C. (rpm designates revolutions per minute).
3. At the end of mixing, the tube was centrifuged at 4500 rpm for 5 minutes.
4. The volumes of the aqueous and extractant phases in the tube were recorded.
5. The aqueous phase was separated from the extractant phase and the masses of both phases were recorded.
6. The acrylic acid and the 3-hydroxypropionic acid in the aqueous solution were analyzed by HPLC.
7. The concentrations of acrylic acid and 3-hydroxypropionic acid in the organic extractant were calculated by subtracting the concentrations of acrylic acid and 3-hydroxypropionic acid in the aqueous phase from the initial concentration in the stock solution.

[2] = Distillation of organic extractant from acrylic acid solution in the presence of water; assay type: physicochemical; details: distillation at about 100 mm Hg, room temperature; 18.5 g isopropyl ether, 3 g acrylic acid, 9 g water
Description: In this Example, there is shown the process for separating and recovering acrylic acid from a solution comprising acrylic acid and an organic extractant that has a boiling point lower than 100° C. The process involves distillation of the solution, in the presence of water, to distill the organic extractant having a boiling point lower than 100° C., resulting in an aqueous acrylic acid solution.
More particularly, 18.5 grams of isopropyl ether, 3 grams of acrylic acid, and 9 grams of distilled water were introduced into a 100 ml round bottom flask. The organic extractant, isopropyl ether, that has a boiling point of 68° C. at ambient temperature, was then distilled from the solution. The distillation of the isopropyl ether organic extractant, was achieved by applying to the flask, containing the solution of acrylic acid, organic extractant and water, a reduced pressure of about 100 mm Hg, at room temperature (about 20-24° C.). The distillation was completed in about 5 minutes. The resulting isopropyl ether distillate that was collected, and the remaining aqueous solution in the flask, were weighed, and the concentration of acrylic acid in both the isopropyl ether distillate and in the aqueous solution, were determined by means of titration. The amount of acrylic acid that remained in the flask as the aqueous solution was 91%. […]

[3] = Aqueous Stock Solution No. 1 (0.67 wt % AA, 1.34 wt % 3HP)
[4] = Aqueous Stock Solution No. 5 (12.51 wt % AA, 25.05 wt % 3HP)
[5] = Aqueous Stock Solution No. 2 (3.33 wt % AA, 6.67 wt % 3HP)
[6] = Aqueous Stock Solution No. 3 (6.67 wt % AA, 13.34 wt % 3HP)
[7] = Aqueous Stock Solution No. 4 (9.99 wt % AA, 19.98 wt % 3HP)

| SMILES | Acid in Aqueous Phase, wt % 3HP [1, 3] [wt %] | Acid in Aqueous Phase, wt % AA [1, 3] [wt %] | Acid in Extractant Phase, wt % 3HP [1, 3] [wt %] | Acid in Extractant Phase, wt % AA [1, 3] [wt %] | Separation Factor, S AA/3HP [1, 3] | Partition Coefficient, D 3HP [1, 3] | Partition Coefficient, D AA [1, 3] | Acid in Aqueous Phase, wt % 3HP [1, 4] [wt %] | Acid in Aqueous Phase, wt % AA [1, 4] [wt %] | Acid in Extractant Phase, wt % 3HP [1, 4] [wt %] | Acid in Extractant Phase, wt % AA [1, 4] [wt %] | Separation Factor, S AA/3HP [1, 4] | Partition Coefficient, D 3HP [1, 4] | Partition Coefficient, D AA [1, 4] | also measured |
| --- | --- | --- | --- | --- | --- | --- | --- | --- | --- | --- | --- | --- | --- | --- | --- |
| CCC(=O)OC [Methyl Propionate, Methyl propionate] | 1.22 | 0.24 | 0.06 | 0.51 | 44.43 | 0.05 | 2.13 | 22.63 | 4.54 | 5.54 | 8.55 | 7.69 | 0.25 | 1.88 |  |
| CCCCCCCCCCO [Decanol] | 1.37 | 0.31 | 0.03 | 0.47 | 77.18 |  |  | 25.90 | 5.94 | 3.21 | 8.20 | 11.13 |  |  |  |
| CCOC(C)=O [Ethyl Acetate, Ethyl acetate, reference compound] | 1.13 | 0.20 | 0.20 | 0.59 | 16.55 |  |  | 21.16 | 4.22 | 8.68 | 8.07 | 4.66 |  |  | Acid in Aqueous Phase, wt % 3HP [1, 5]: 5.77 wt %; Acid in Aqueous Phase, wt % AA [1, 5]: 0.97 wt %; Acid in Extractant Phase, wt % 3HP [1, 5]: 1.21 wt %; Acid in Extractant Phase, wt % AA [1, 5]: 2.87 wt %; Separation Factor, S AA/3HP [1, 5]: 14.18; Acid in Aqueous Phase, wt % 3HP [1, 6]: 11.38 wt %; Acid in Aqueous Phase, wt % AA [1, 6]: 2.02 wt %; Acid in Extractant Phase, wt % 3HP [1, 6]: 3.09 wt %; Acid in Extractant Phase, wt % AA [1, 6]: 5.36 wt %; Separation Factor, S AA/3HP [1, 6]: 9.79; Acid in Aqueous Phase, wt % 3HP [1, 7]: 17.08 wt %; Acid in Aqueous Phase, wt % AA [1, 7]: 3.18 wt %; Acid in Extractant Phase, wt % 3HP [1, 7]: 5.17 wt %; Acid in Extractant Phase, wt % AA [1, 7]: 7.53 wt %; Separation Factor, S AA/3HP [1, 7]: 7.81 |
| Cc1ccccc1 [Toluene] | 1.42 | 0.69 |  |  |  |  |  | 26.72 | 10.57 |  | 2.47 |  |  |  |  |
| CC(=O)OC(C)C [Isopropyl Acetate, Isopropyl acetate] | 1.28 | 0.24 | 0.06 | 0.52 | 43.36 | 0.05 | 2.19 | 25.35 | 4.42 | 3.82 | 8.95 | 13.43 | 0.15 | 2.02 |  |
| CC(=O)CC(C)C [MiBK, Methyl isobutyl ketone] | 1.32 | 0.23 | 0.03 | 0.59 | 108.82 |  |  | 24.17 | 4.11 | 5.46 | 9.92 | 10.69 |  |  |  |
| C=CC(=O)OC [Methyl Acrylate, Methyl acrylate] | 1.24 | 0.25 | 0.07 | 0.45 | 31.01 | 0.06 | 1.82 | 21.57 | 4.51 | 6.70 | 8.13 | 5.80 | 0.31 | 1.80 |  |
| ClCCl [CH2Cl2, Methylene chloride] | 1.39 | 0.61 |  | 0.04 |  |  | 0.06 | 25.05 | 7.84 | 0.53 | 3.72 | 22.45 | 0.02 | 0.48 |  |
| CC(C)OC(C)C [Isopropyl Ether, Isopropyl ether] | 1.30 | 0.36 | 0.04 | 0.44 | 40.59 |  |  | 25.72 | 5.92 | 1.85 | 9.79 | 22.91 |  |  | amount of acrylic acid that remained in the flask as the aqueous solution [2]: 91%; amount of acrylic acid that was co-distilled with the extractant [2]: about 7% |
